The record followed here is PMC3671888 (Journal of medicinal chemistry, 2012).

The experiment has as its target T1, recombinant human sGC (soluble guanylyl cyclase), α1 and β1 subunits (Homo sapiens, UniProt Q02108+Q02153).
T1 sequence (Q02108 1-690): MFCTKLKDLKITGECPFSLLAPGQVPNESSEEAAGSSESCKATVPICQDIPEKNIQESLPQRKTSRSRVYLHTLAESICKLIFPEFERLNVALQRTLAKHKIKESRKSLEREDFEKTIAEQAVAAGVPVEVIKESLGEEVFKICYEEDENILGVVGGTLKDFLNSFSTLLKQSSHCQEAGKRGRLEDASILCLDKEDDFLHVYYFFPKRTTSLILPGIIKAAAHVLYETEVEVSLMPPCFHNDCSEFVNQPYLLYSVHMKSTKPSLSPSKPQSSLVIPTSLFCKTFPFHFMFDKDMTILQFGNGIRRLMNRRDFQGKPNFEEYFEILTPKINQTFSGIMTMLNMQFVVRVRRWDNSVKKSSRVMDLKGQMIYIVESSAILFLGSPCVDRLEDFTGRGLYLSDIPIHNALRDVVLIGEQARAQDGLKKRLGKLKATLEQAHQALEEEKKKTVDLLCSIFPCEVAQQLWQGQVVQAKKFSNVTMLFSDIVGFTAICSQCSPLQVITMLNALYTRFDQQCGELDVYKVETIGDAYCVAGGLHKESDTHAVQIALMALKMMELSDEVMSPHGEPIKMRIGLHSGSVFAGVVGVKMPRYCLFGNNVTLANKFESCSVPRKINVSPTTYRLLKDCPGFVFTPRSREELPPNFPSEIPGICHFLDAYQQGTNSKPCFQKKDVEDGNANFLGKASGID
T1 sequence (Q02153 1-619): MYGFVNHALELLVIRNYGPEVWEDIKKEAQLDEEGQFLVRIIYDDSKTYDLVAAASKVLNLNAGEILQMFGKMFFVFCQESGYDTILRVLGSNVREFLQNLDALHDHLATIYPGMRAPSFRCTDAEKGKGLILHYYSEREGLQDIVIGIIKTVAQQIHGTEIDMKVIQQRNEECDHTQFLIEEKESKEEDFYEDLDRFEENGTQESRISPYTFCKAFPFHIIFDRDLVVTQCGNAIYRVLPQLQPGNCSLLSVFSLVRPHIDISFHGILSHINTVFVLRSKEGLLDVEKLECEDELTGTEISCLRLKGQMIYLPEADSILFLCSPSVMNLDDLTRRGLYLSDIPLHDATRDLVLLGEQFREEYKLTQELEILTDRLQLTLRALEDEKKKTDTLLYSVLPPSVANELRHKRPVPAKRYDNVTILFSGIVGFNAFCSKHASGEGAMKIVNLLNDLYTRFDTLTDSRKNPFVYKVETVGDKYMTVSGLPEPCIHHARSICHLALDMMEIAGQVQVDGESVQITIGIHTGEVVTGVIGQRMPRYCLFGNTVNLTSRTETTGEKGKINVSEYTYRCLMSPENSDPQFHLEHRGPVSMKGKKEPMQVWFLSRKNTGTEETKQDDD
In words: [alpha-32P]GTP to […]cGMP conversion assay. It is filed as biochemical. To be noted: read-out: EC50 [μM] ^b; activation; preincubation with compound at 25 °C.

In general, EC50 refers to the concentration at which the effect is half-maximal. With `C#N.C#N.C/C1=C2/NC([C@H](CC(N)=O)[C@@]2(C)CCC(=O)NCC(C)O)[C@]2(C)N=C(/C(C)=C3N=C(/C=C4N=C1[C@@H](CCC(N)=O)C\4(C)C)[C@@H](CCC(N)=O)[C@]\3(C)CC(N)=O)[C@@H](CCC(N)=O)[C@]2(C)CC(N)=O.[Co]` (stereo partly shown) [compound 1, dicyanocobinamide], the EC50 came to 34.2 µM.
